Laboratory results: patent US20240166646A1, “1H-PYRROLO[2,3-B]PYRIDINE DERIVATIVES AS BCL-2 INHIBITORS FOR THE TREATMENT OF NEOPLASTIC AND AUTOIMMUNE DISEASES” (Newave Pharmaceutical Inc., priority 2020, published 2024)
Counter-ions that a name gives are not always drawn.

Biological target: Bcl-2 (Homo sapiens (Human), UniProt P10415)
Assay: Bcl-2 competition binding (fluorescence polarization) assay
Conditions: fluorescein labeled BH3 peptide 15 nM, Bcl-2 protein 30 nM, 3 hours of incubation at room temperature
Method: Biological Example 1: Bcl-2 Competition Binding (Fluorescence Polarization) Assay
The fluorescence-labeled 23 amino acid peptide BH3 was purchased from CalBiochem ([…]). […] This binding assay was performed in 96-well plate and with each assay contained 15 and 30 nM of labeled peptide and purified Bcl-2 protein (purchased from R&D Systems, Inc). The assay buffer contained 20 mM Hepes (pH 7.0), 50 mM KCl, 5 mM MgCl2, 20 mM Na2MoO4, 0.1 mg/mi Bovine Gamma Globulin and 0.01% NP40. Compounds were diluted in DMS0 and added to the final assay with concentration range from 20 μM to 2 nM. The polarization degree (mP) value was determined by BioTek Synergy II with background subtraction after 3 hours of incubation at room temperature. IC50 was calculated using Prism software with sigmoidal dose-response curve fitting. ABT-737 was used as reference compound. Such assays, carried out with a range of doses of test compounds, allowed the determination of an approximate IC50 value.

Bcl-2, sequence (P10415 whole entry): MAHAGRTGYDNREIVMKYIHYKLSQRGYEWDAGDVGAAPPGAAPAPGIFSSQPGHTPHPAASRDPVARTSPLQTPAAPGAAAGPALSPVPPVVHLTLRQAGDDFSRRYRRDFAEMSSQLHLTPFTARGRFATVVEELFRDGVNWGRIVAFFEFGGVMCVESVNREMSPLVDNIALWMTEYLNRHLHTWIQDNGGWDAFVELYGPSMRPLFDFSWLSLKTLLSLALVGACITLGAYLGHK

Q: Which IC50 does the source give for `O=C(NS(=O)(=O)c1ccc(NCC2CCOCC2)c([N+](=O)[O-])c1)c1ccc(N2CCC3(CC2)CC(N2CCC[C@H]2c2ccccc2)C3)cc1N1c2cc3cc[nH]c3nc2O[C@@H]2COC[C@H]21` [Example 12, 2-[(11R,15S)-13,16-dioxa-2,4,10-triazatetracyclo[7.7.0.0^{3,7}.0^{11,15}]hexadeca-1(9),2,5,7-tetraen-10-yl]-N-{3-nitro-4-[(oxan-4-ylmethyl)amino]benzenesulfonyl}-4-{2-[(2S)-2-phenylpyrrolidin-1-yl]-7-azaspiro[3.5]nonan-7-yl}benzamide hydrochloride] here?
A: 0.161 nM

Q: `O=C(NS(=O)(=O)c1ccc(NCC2CCOCC2)c([N+](=O)[O-])c1)c1ccc(N2CCC3(CC2)CC(N2CCC[C@H]2c2ccccc2-c2cccnc2)C3)cc1N1c2cc3cc[nH]c3nc2O[C@@H]2COC[C@H]21` [Example 13, 2-[(11R,15S)-13,16-dioxa-2,4,10-triazatetracyclo[7.7.0.0^{3,7}.0^{11,15}]hexadeca-1(9),2,5,7-tetraen-10-yl]-N-{3-nitro-4-[(oxan-4-ylmethyl)amino]benzenesulfonyl}-4-{2-[(2S)-2-[2-(pyridin-3-yl)phenyl]pyrrolidin-1-yl]-7-azaspiro[3.5]nonan-7-yl}benzamide hydrochloride] was tested. Which IC50 did it give?
A: 2.42 nM

Q: For `O=C(NS(=O)(=O)c1ccc(NCC2CCOCC2)c([N+](=O)[O-])c1)c1ccc(N2CCC3(CC2)CC(N2CCC[C@H]2c2ccccc2-c2ccncc2)C3)cc1N1c2cc3cc[nH]c3nc2O[C@@H]2COC[C@H]21` [Example 14, 2-[(11R,15S)-13,16-dioxa-2,4,10-triazatetracyclo[7.7.0.0^{3,7}.0^{11,15}]hexadeca-1(9),2,5,7-tetraen-10-yl]-N-{3-nitro-4-[(oxan-4-ylmethyl)amino]benzenesulfonyl}-4-{2-[(2S)-2-[2-(pyridin-4-yl)phenyl]pyrrolidin-1-yl]-7-azaspiro[3.5]nonan-7-yl}benzamide hydrochloride], which IC50 is on record?
A: 0.74 nM

Q: With `O=C(NS(=O)(=O)c1ccc(NCC2CCOCC2)c([N+](=O)[O-])c1)c1ccc(N2CCC3(CC2)CC(N2CCC[C@H]2c2ccccc2C(F)(F)F)C3)cc1N1c2cc3cc[nH]c3nc2O[C@@H]2COC[C@H]21` [Example 15, 2-[(11R,15S)-13,16-dioxa-2,4,10-triazatetracyclo[7.7.0.0^{3,7}.0^{11,15}]hexadeca-1(9),2,5,7-tetraen-10-yl]-N-{3-nitro-4-[(oxan-4-ylmethyl)amino]benzenesulfonyl}-4-{2-[(2S)-2-[2-(trifluoromethyl)phenyl]pyrrolidin-1-yl]-7-azaspiro[3.5]nonan-7-yl}benzamide hydrochloride] as the compound, how does the IC50 read?
A: 0.2 nM

Q: For `COc1ccccc1[C@@H]1CCCN1C1CC2(CCN(c3ccc(C(=O)NS(=O)(=O)c4ccc(NCC5CCOCC5)c([N+](=O)[O-])c4)c(N4c5cc6cc[nH]c6nc5O[C@@H]5COC[C@H]54)c3)CC2)C1` [Example 16, 2-[(11R,15S)-13,16-dioxa-2,4,10-triazatetracyclo[7.7.0.0^{3,7}.0^{11,15}]hexadeca-1(9),2,5,7-tetraen-10-yl]-4-{2-[(2S)-2-(2-methoxyphenyl)pyrrolidin-1-yl]-7-azaspiro[3.5]nonan-7-yl}-N-{3-nitro-4-[(oxan-4-ylmethyl)amino]benzenesulfonyl}benzamide], which IC50 is on record?
A: 0.09 nM

Q: For `O=C(NS(=O)(=O)c1ccc(NCC2CCOCC2)c([N+](=O)[O-])c1)c1ccc(N2CCC3(CC2)CC(N2CCC[C@H]2c2ccccc2-c2ccccn2)C3)cc1N1c2cc3cc[nH]c3nc2O[C@@H]2COC[C@H]21` [Example 18, 2-[(11R,15S)-13,16-dioxa-2,4,10-triazatetracyclo[7.7.0.0^{3,7}.0^{11,15}]hexadeca-1(9),2,5,7-tetraen-10-yl]-N-{3-nitro-4-[(oxan-4-ylmethyl)amino]benzenesulfonyl}-4-{2-[(2S)-2-[2-(pyridin-2-yl)phenyl]pyrrolidin-1-yl]-7-azaspiro[3.5]nonan-7-yl}benzamide], which IC50 is on record?
A: 0.42 nM

Q: For `CC(C)Nc1ccccc1[C@@H]1CCCN1C1CC2(CCN(c3ccc(C(=O)NS(=O)(=O)c4ccc(NCC5CCOCC5)c([N+](=O)[O-])c4)c(N4c5cc6cc[nH]c6nc5O[C@@H]5COC[C@H]54)c3)CC2)C1` [Example 21, 2-[(11R,15S)-13,16-dioxa-2,4,10-triazatetracyclo[7.7.0.0^{3,7}.0^{11,15}]hexadeca-1(9),2,5,7-tetraen-10-yl]-4-{2-[(2S)-2-[2-(isopropylamino)phenyl]pyrrolidin-1-yl]-7-azaspiro[3.5]nonan-7-yl}-N-{3-nitro-4-[(oxan-4-ylmethyl)amino]benzenesulfonyl}benzamide hydrochloride], which IC50 is on record?
A: 0.239 nM

Q: With `O=C(NS(=O)(=O)c1ccc(NCC2CCOCC2)c([N+](=O)[O-])c1)c1ccc(N2CCC3(CC2)CC(N2CCC[C@H]2c2ccccc2C2CCC2)C3)cc1N1c2cc3cc[nH]c3nc2O[C@@H]2COC[C@H]21` [Example 22, 4-{2-[(2S)-2-(2-cyclobutylphenyl)pyrrolidin-1-yl]-7-azaspiro[3.5]nonan-7-yl}-2-[(11R,15S)-13,16-dioxa-2,4,10-triazatetracyclo[7.7.0.0^{3,7}.0^{11,15}]hexadeca-1(9),2,5,7-tetraen-10-yl]-N-{3-nitro-4-[(oxan-4-ylmethyl)amino]benzenesulfonyl}benzamide] as the compound, how does the IC50 read?
A: 0.1 nM

Q: With `O=C(NS(=O)(=O)c1ccc(NCC2CCOCC2)c([N+](=O)[O-])c1)c1ccc(N2CCC3(CC2)CC(N2CCC[C@H]2c2ccccc2Cl)C3)cc1N1c2cc3cc[nH]c3nc2O[C@@H]2COC[C@H]21` [Example 23, 4-{2-[(2S)-2-(2-chlorophenyl)pyrrolidin-1-yl]-7-azaspiro[3.5]nonan-7-yl}-2-[(11R,15S)-13,16-dioxa-2,4,10-triazatetracyclo[7.7.0.0^{3,7}.0^{11,15}]hexadeca-1(9),2,5,7-tetraen-10-yl]-N-{3-nitro-4-[(oxan-4-ylmethyl)amino]benzenesulfonyl}benzamide hydrochloride] as the compound, how does the IC50 read?
A: 0.587 nM

Q: For `O=C(NS(=O)(=O)c1ccc(NCC2CCOCC2)c([N+](=O)[O-])c1)c1ccc(N2CCC3(CC2)CC(N2CCC[C@H]2c2ccccc2F)C3)cc1N1c2cc3cc[nH]c3nc2O[C@@H]2COC[C@H]21` [Example 24, 2-[(11R,15S)-13,16-dioxa-2,4,10-triazatetracyclo[7.7.0.0^{3,7}.0^{11,15}]hexadeca-1(9),2,5,7-tetraen-10-yl]-4-{2-[(2S)-2-(2-fluorophenyl)pyrrolidin-1-yl]-7-azaspiro[3.5]nonan-7-yl}-N-{3-nitro-4-[(oxan-4-ylmethyl)amino]benzenesulfonyl}benzamide hydrochloride], which IC50 is on record?
A: 0.42 nM

Q: Which IC50 does the source give for `CS(=O)(=O)Nc1ccccc1[C@@H]1CCCN1C1CC2(CCN(c3ccc(C(=O)NS(=O)(=O)c4ccc(NCC5CCOCC5)c([N+](=O)[O-])c4)c(N4c5cc6cc[nH]c6nc5O[C@@H]5COC[C@H]54)c3)CC2)C1` [Example 25, 2-[(11R,15S)-13,16-dioxa-2,4,10-triazatetracyclo[7.7.0.0^{3,7}.0^{11,15}]hexadeca-1(9),2,5,7-tetraen-10-yl]-4-{2-[(2S)-2-(2-methanesulfonamidophenyl)pyrrolidin-1-yl]-7-azaspiro[3.5]nonan-7-yl}-N-{3-nitro-4-[(oxan-4-ylmethyl)amino]benzenesulfonyl}benzamide] here?
A: 14.8 nM
